Paper PMC11456426, “Study of transport, tissue distribution, depletion, and hepatotoxicity of Cyadox, a quinoxaline-1,4-dioxide derivative” (Frontiers in Pharmacology, 2024)
Where two headings read alike, the source gives them in different places.

What was measured:
[1] = target: T1, bovine serum albumin (BSA) (Bos taurus, UniProt P02769); assay: Circular dichroism spectra of the BSA-CYA system; type: binding; details: 1.0 × 10^−6 M BSA with 1.0 × 10^−6 M CYA, pH 7.4, 312 K
Protocol: For CD studies, the final concentration of BSA and CYA was 1.0 × 10^−6 M. The CD spectra were recorded at 312 K with a Jasco-810 spectropolarimeter (Jasco, Japan) using a 0.1 cm quartz cuvette. Three scans were accumulated at a scan speed of 200 nm min^−1, with data being collected every 0.2 nm from 200 nm to 260 nm at 312 K.

liver = assay: Hepatotoxicity by liver transcriptomics; type: in vivo, KM mice; details: mice, CYA 1,000 mg/kg bw, 7 days
Protocol: For the hepatotoxicity study, a group of four mice (2 male and 2 female, KM) were administered CYA at a dose of 1,000 mg/kg bw. Another group of four mice received saline as a control. After 7 days, the mice were anaesthetised, sacrificed and their livers collected. A total of eight samples from 2 groups of the obtained livers were sent to Majorbio Technology Co., Ltd. (Shanghai, China) for testing, divided into the blank group (control; A1, A2, A3, A4) and the drug group administered CYA (drug; B1, B2, B3, B4), with 4 samples in each group. Sequencing was performed using the Meiji Medical Reference Transcriptome Sequencing Platform to complete the transcriptome analysis of eight samples. The raw reads were deposited into the NCBI Sequence Read Archive (SRA) database (BioProject: Number: PRJNA1082257).
Differently expressed genes are genes with significant differences obtained by computing the expression of all genes between different groups after transcriptome sequencing. On the Meggie Bio platform, differential gene analysis was carried out between groups by quantifying the expression results to obtain the genes that were differentially expressed between the two groups, and the differential analysis software was: DESeq2, the screening threshold was: |log2FC| ≥0 and padjust< 0.05, and the specific results are shown in Figure 5B below.

[2] = target: T1, bovine serum albumin (BSA); assay: Fluorescence quenching of BSA by CYA (Stern-Volmer and binding constants); details: for Kd: read-out: KA (binding constant) (converted)
Protocol: The concentration of CYA was varied at 0, 0.33, 0.66, 1.0, 1.33, 1.66, and 2.0 × 10^−6 M.
Steady-state fluorescence spectra were performed on a FP-6500 spectrofluorimeter (Jasco, Japan) equipped with a thermostatic bath and 1.0 cm quartz cell. Fluorescence emission spectra were recorded at 300, 305, and 310 K in the range of 295 nm–500 nm. The excitation and emission slits with a band pass of 5 nm were used for all the measurements.
Synchronous fluorescence spectra were performed when the D-values between the excitation and emission wavelengths were set at 15 and 60 nm. Fluorescence excitation spectra were recorded at 302, 307, and 312 K in the range of 200–400 nm.
The Stern–Volmer equation below was used to analyze the fluorescence quenching data and confirm the quenching mechanism ([Zhou et al., 2022]): F0/F=1+KSVQ=1+kqτ0Q , where F 0 and F are the fluorescence intensities before and after the addition of the quencher CYA, K sv is the Stern–Volmer quenching constant, k q is the bimolecular quenching constant, τ 0 is the lifetime of the fluorophore in the absence of the quencher (10^−8 s), and [Q] is the concentration of the quencher. The Stern–Volmer quenching constant K sv is inversely correlated with temperature, and the k q values are much greater than the maximum scattering collisional quenching constant (2.0 × 10^10 M^−1S^−1).
For static quenching, the equilibrium between the free and bound molecules is given by the following equation: logF0−F/F=logKA+nlogQ , where K A is the binding constant, and n is the number of binding sites. […] Moreover, the values of n were approximately equal to 1, which indicated the presence of one binding site in the BSA–CYA system.

testis = system: testis; design: method as in Ihsan et al., 2011; details: ref Ihsan et al., 2011, cited from earlier work

T1 sequence (P02769 25-607): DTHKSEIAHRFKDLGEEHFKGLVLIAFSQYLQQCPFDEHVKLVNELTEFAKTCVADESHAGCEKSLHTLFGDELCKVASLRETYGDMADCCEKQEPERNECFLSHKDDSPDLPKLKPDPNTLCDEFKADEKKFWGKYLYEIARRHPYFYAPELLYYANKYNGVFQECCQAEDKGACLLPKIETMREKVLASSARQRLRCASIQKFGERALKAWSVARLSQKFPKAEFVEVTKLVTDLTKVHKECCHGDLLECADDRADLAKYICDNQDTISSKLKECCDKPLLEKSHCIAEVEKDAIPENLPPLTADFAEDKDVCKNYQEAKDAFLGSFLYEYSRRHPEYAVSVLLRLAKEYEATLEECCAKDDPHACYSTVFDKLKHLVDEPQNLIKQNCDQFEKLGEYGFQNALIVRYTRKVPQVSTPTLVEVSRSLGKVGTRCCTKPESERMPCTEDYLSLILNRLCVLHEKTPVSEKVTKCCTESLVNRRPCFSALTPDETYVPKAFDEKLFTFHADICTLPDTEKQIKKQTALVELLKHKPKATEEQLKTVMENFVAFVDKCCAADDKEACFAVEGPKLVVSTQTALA

Compound: N#CCC(=O)NN=Cc1c[n+]([O-])c2ccccc2[n+]1[O-] [CYA, (2-formylquinoxaline)-N1,N4-dioxide cyanoacetylhydrazone]
- BSA secondary structure, turns ([1]; BSA alone 19%): 26%
- BSA secondary structure, α-helix ([1]; BSA alone 20%): 21%
- BSA secondary structure, unordered ([1]; BSA alone 26%): 25%
- BSA secondary structure, β-strand ([1]; BSA alone 35%): 28%
- cell-process differential genes associated with apoptosis (liver): none
- direction of change of lipid metabolism / steroid biosynthesis related genes (liver): predominantly downregulated
- expression of StAR, P450scc, and 17β-HSD (liver transcriptomic data) (liver): no significant decrease
- genes expressed uniquely after administration of the drug (liver): 249
- genes of lipid metabolism-related pathways with significant changes (liver): 25
- hepatotoxicity (transcriptomic assessment) (liver): low hepatotoxicity
- significantly different genes associated with cell processes (liver): 23
- genes significantly downregulated in liver, drug group vs blank group (liver; DESeq2, padjust< 0.05): 176
- Ksv (Stern-Volmer quenching constant) ([2]; T 302 K, pH 7.4): 86500 M⁻¹
- kq (bimolecular quenching constant) ([2]; T 302 K, pH 7.4): 8.65 × 10^12 M^−1S^−1
- n (number of binding sites) ([2]; T 302 K, pH 7.4): 1.139
- Kd ([2]; T 302 K, pH 7.4): 5.71 µM
- Ksv (Stern-Volmer quenching constant) ([2]; T 307 K, pH 7.4): 40700 M⁻¹
- kq (bimolecular quenching constant) ([2]; T 307 K, pH 7.4): 4.07 × 10^12 M^−1S^−1
- n (number of binding sites) ([2]; T 307 K, pH 7.4): 0.915
- Kd ([2]; T 307 K, pH 7.4): 103 µM
- Ksv (Stern-Volmer quenching constant) ([2]; T 312 K, pH 7.4): 33600 M⁻¹
- kq (bimolecular quenching constant) ([2]; T 312 K, pH 7.4): 3.36 × 10^12 M^−1S^−1
- n (number of binding sites) ([2]; T 312 K, pH 7.4): 0.931
- Kd ([2]; T 312 K, pH 7.4): 178 µM
- n (number of binding sites) ([2]; all temperatures): ~1

Compound: CC(=O)c1c(C)[n+]([O-])c2ccccc2[n+]1[O-] [MEQ, Mequindox]
- mRNA expression levels of AR and 3β-HSD (testis; 110 mg/kg vs control group): significantly increased
- mRNA expression levels of StAR, P450scc, and 17β-HSD in the testis (testis; 275 mg/kg vs control group): significantly reduced
